Laboratory results: patent US7223865B2, “Chromogenic compounds, and use thereof as enzyme substrates” (Biomerieux, priority 2003, dated 2007)

Key:
Assay type in all cases: cell-based
Escherichia coli (032) [1] = test: L-alanine-aminopeptidase activity on gelled medium, Example 3; conditions: 0.3 g/l
Protocol: (§1) A gelled medium comprising 300 mg/l of L-Ala-4-AP-10-MA is prepared as follows: 46.37 g of Columbia agar are added to 1 liter of distilled water and then autoclaved, and the substrate is then introduced by means of a stock solution in DMSO. Microorganisms derived from the applicant's collection were seeded onto the medium, by delimitation as three dials, using a suspension at 0.5 McFarland. The dishes were incubated at 37° C. for 48 hours. The colonies formed were examined visually after incubation for 24 and 48 hours. The color of these colonies and also the intensity of this color were noted.

Listeria innocua (036) = test: as above; conditions: 0.3 g/l
Protocol: as §1

[2] = test system: Klebsiella pneumoniae (023); test: as above; conditions: 0.3 g/l
Protocol: as §1

[3] = test system: Enterococcus faecalis (075); test: as above; conditions: 0.3 g/l
Protocol: as §1

[4] = test system: Staphylococcus aureus (070); test: as above; conditions: 0.3 g/l
Protocol: as §1

Citrobacter koseri (090) = test: as above; conditions: 0.3 g/l
Protocol: as §1

Candida albicans (056) = test: as above; conditions: 0.3 g/l
Protocol: as §1

Proteus mirabilis (103) = test: as above; conditions: 0.3 g/l
Protocol: as §1

[5] = test system: Streptococcus pyogenes (067); test: as above; conditions: 0.3 g/l
Protocol: as §1

[6] = test system: Staphylococcus aureus (NCTC 6571); test: L-alanine-aminopeptidase activity on gelled medium, Example 8; set-up: key to growth: ++ means good growth; + means moderate growth; +/− means poor growth; NG means no growth
Protocol: (§2) A gelled medium comprising these three substrates is prepared as follows: 30 mg of each substrate are dissolved (heating) in 10 ml of sterile distilled water. Ten ml of this solution are then added to 90 ml of Columbia agar kept molten at 50° C.
(§3) Various strains of microorganisms derived from the NCTC collection (National Collection of Type Cultures, Colindale, UK) were seeded onto the media thus obtained according to multipoint inoculation: for each strain, a drop of 10 μl of a suspension at 0.5 McFarland is deposited onto each of the culture media.
(§4) The colonies formed were examined visually after incubation for 24 h and 48 h. The color and the growth of these colonies were noted.

[7] = test system: Pseudomonas aeruginosa (NCTC 10662); test: as above; set-up: key to growth: ++ means good growth; + means moderate growth; +/− means poor growth; NG means no growth
Protocol: as §2, §3, §4

[8] = test system: Klebsiella pneumoniae (NCTC 10896); test: as above; set-up: key to growth: ++ means good growth; + means moderate growth; +/− means poor growth; NG means no growth
Protocol: as §2, §3, §4

[9] = test system: Burkholderia cepacia (NCTC 10743); test: as above; set-up: key to growth: ++ means good growth; + means moderate growth; +/− means poor growth; NG means no growth
Protocol: as §2, §3, §4

[10] = test system: Enterococcus faecalis (NCTC 12697); test: as above; set-up: key to growth: ++ means good growth; + means moderate growth; +/− means poor growth; NG means no growth
Protocol: as §2, §3, §4

[11] = test system: Salmonella typhimurium (NCTC 74); test: as above; set-up: key to growth: ++ means good growth; + means moderate growth; +/− means poor growth; NG means no growth
Protocol: as §2, §3, §4

[12] = test system: Listeria monocytogenes (NCTC 11994); test: as above; set-up: key to growth: ++ means good growth; + means moderate growth; +/− means poor growth; NG means no growth
Protocol: as §2, §3, §4

[13] = test system: E. coli O157 (NCTC 12079); test: as above; set-up: key to growth: ++ means good growth; + means moderate growth; +/− means poor growth; NG means no growth
Protocol: as §2, §3, §4

[14] = test system: Shigella sonnei (NCTC 9774); test: as above; set-up: key to growth: ++ means good growth; + means moderate growth; +/− means poor growth; NG means no growth
Protocol: as §2, §3, §4

[15] = test system: Salmonella poona (NCTC 4840); test: as above; set-up: key to growth: ++ means good growth; + means moderate growth; +/− means poor growth; NG means no growth
Protocol: as §2, §3, §4

[16] = test system: Serratia marcescens (NCTC 10211); test: as above; set-up: key to growth: ++ means good growth; + means moderate growth; +/− means poor growth; NG means no growth
Protocol: as §2, §3, §4

[17] = test system: Enterobacter cloacae (NCTC 11936); test: as above; set-up: key to growth: ++ means good growth; + means moderate growth; +/− means poor growth; NG means no growth
Protocol: as §2, §3, §4

[18] = test system: Enterococcus faecium (NCTC 7171); test: as above; set-up: key to growth: ++ means good growth; + means moderate growth; +/− means poor growth; NG means no growth
Protocol: as §2, §3, §4

[19] = test system: Staphylococcus aureus (NCTC 11939); test: as above; set-up: key to growth: ++ means good growth; + means moderate growth; +/− means poor growth; NG means no growth
Protocol: as §2, §3, §4

[20] = test system: Enterococcus faecalis (NCTC 755); test: as above; set-up: key to growth: ++ means good growth; + means moderate growth; +/− means poor growth; NG means no growth
Protocol: as §2, §3, §4

Pseudomonas putida (028) = test: β-alanine-aminopeptidase activity on gelled medium, Example 5; conditions: 0.3 g/l
Protocol: as §1, with “of β-Ala-4-AP-10-MA” for “of L-Ala-4-AP-10-MA”, “suspension of” for “suspension at”

[21] = test system: Pseudomonas fluorescens (016); test: as above; conditions: 0.3 g/l
Protocol: as §1, with “of β-Ala-4-AP-10-MA” for “of L-Ala-4-AP-10-MA”, “suspension of” for “suspension at”

Escherichia coli (032) [22] = test: as above; conditions: 0.3 g/l
Protocol: as §1, with “of β-Ala-4-AP-10-MA” for “of L-Ala-4-AP-10-MA”, “suspension of” for “suspension at”

[23] = test system: Burkholderia cepacia (004); test: as above; conditions: 0.3 g/l
Protocol: as §1, with “of β-Ala-4-AP-10-MA” for “of L-Ala-4-AP-10-MA”, “suspension of” for “suspension at”

[24] = test system: Pseudomonas aeruginosa (052); test: as above; conditions: 0.3 g/l
Protocol: as §1, with “of β-Ala-4-AP-10-MA” for “of L-Ala-4-AP-10-MA”, “suspension of” for “suspension at”

[25] = test system: Klebsiella pneumoniae (023); test: as above; conditions: 0.3 g/l
Protocol: as §1, with “of β-Ala-4-AP-10-MA” for “of L-Ala-4-AP-10-MA”, “suspension of” for “suspension at”

[26] = test system: Pseudomonas aeruginosa (165); test: as above; conditions: 0.3 g/l
Protocol: as §1, with “of β-Ala-4-AP-10-MA” for “of L-Ala-4-AP-10-MA”, “suspension of” for “suspension at”

[27] = test system: Pseudomonas stutzeri (073); test: as above; conditions: 0.3 g/l
Protocol: as §1, with “of β-Ala-4-AP-10-MA” for “of L-Ala-4-AP-10-MA”, “suspension of” for “suspension at”

[28] = test system: Acinetobacter calcoaceticus (034); test: as above; conditions: 0.3 g/l
Protocol: as §1, with “of β-Ala-4-AP-10-MA” for “of L-Ala-4-AP-10-MA”, “suspension of” for “suspension at”

For `C[C@H](N)C(=O)Nc1ccc(-c2c3ccccc3[n+](C)c3ccccc23)cc1.[Cl-]` [L-Ala-4-AP-10-MA, L-alanyl-9-(4-aminophenyl)-10-methylacridinium Chloride], the Color (Escherichia coli (032) [1]; 24 H) was “pink-orange”, the Intensity (Escherichia coli (032) [1]; 24 H) was 3.5 and the Color (Escherichia coli (032) [1]; 48 h) was “pink-orange”. For the same molecule, the Intensity (Escherichia coli (032) [1]; 48 h) was 3.5, the Color (Listeria innocua (036); 24 H) was “colorless” and the Color (Listeria innocua (036); 48 h) was “pink-orange”. For the same molecule, the Intensity (Listeria innocua (036); 48 h) was “traces”, the Color ([2]; 24 H) was “pink-orange” and the Intensity ([2]; 24 H) was 3. The Color ([2]; 48 h) was “pink-orange”, the Intensity ([2]; 48 h) was 3 and the Color ([3]; 24 H) was “pink”. The Intensity ([3]; 24 H) was “traces”, the Color ([3]; 48 h) was “pink-orange” and the Intensity ([3]; 48 h) was 0.5. For the same molecule, the Color ([4]; 24 H) was “inhibited”, the Color ([4]; 48 h) was “inhibited” and the Color (Citrobacter koseri (090); 24 H) was “pink-orange”. For the same molecule, the Intensity (Citrobacter koseri (090); 24 H) was 3, the Color (Citrobacter koseri (090); 48 h) was “pink-orange” and the Intensity (Citrobacter koseri (090); 48 h) was 3. The Color (Candida albicans (056); 24 H) was “colorless”, the Color (Candida albicans (056); 48 h) was “colorless” and the Color (Proteus mirabilis (103); 24 H) was “pink-orange”. For the same molecule, the Intensity (Proteus mirabilis (103); 24 H) was 1, the Color (Proteus mirabilis (103); 48 h) was “pink-orange” and the Intensity (Proteus mirabilis (103); 48 h) was 2. The Color ([5]; 24 H) was “inhibited”, the Color ([5]; 48 h) was “inhibited” and the growth ([6]; 24 h) was “NG”. The growth ([6]; 48 h) was “NG”, the color of colonies ([7]; 24 h) was “Orange” and the growth ([7]; 24 h) was “++”. The color of colonies ([7]; 48 h) was “Orange”, the growth ([7]; 48 h) was “++” and the color of colonies ([8]; 24 h) was “Orange”. The growth ([8]; 24 h) was “++”, the color of colonies ([8]; 48 h) was “Orange” and the growth ([8]; 48 h) was “++”. The color of colonies ([9]; 24 h) was “Orange”, the growth ([9]; 24 h) was “++” and the color of colonies ([9]; 48 h) was “Orange”. The growth ([9]; 48 h) was “++”, the color of colonies ([10]; 24 h) was “Colorless” and the growth ([10]; 24 h) was “+/−”. The color of colonies ([10]; 48 h) was “Colorless”, the growth ([10]; 48 h) was “+/−” and the color of colonies ([11]; 24 h) was “Orange”. The growth ([11]; 24 h) was “++”, the color of colonies ([11]; 48 h) was “Orange” and the growth ([11]; 48 h) was “++”. The color of colonies ([12]; 24 h) was “Colorless”, the growth ([12]; 24 h) was “++” and the color of colonies ([12]; 48 h) was “Colorless”. For the same molecule, the growth ([12]; 48 h) was “++”, the color of colonies ([13]; 24 h) was “Orange” and the growth ([13]; 24 h) was “++”. For the same molecule, the color of colonies ([13]; 48 h) was “Orange”, the growth ([13]; 48 h) was “++” and the color of colonies ([14]; 24 h) was “Orange”. The growth ([14]; 24 h) was “++”, the color of colonies ([14]; 48 h) was “Orange” and the growth ([14]; 48 h) was “++”. The color of colonies ([15]; 24 h) was “Orange”, the growth ([15]; 24 h) was “++” and the color of colonies ([15]; 48 h) was “Orange”. For the same molecule, the growth ([15]; 48 h) was “++”, the color of colonies ([16]; 24 h) was “Orange” and the growth ([16]; 24 h) was “++”. The color of colonies ([16]; 48 h) was “Orange”, the growth ([16]; 48 h) was “++” and the color of colonies ([17]; 24 h) was “Orange”. For the same molecule, the growth ([17]; 24 h) was “++”, the color of colonies ([17]; 48 h) was “Orange” and the growth ([17]; 48 h) was “++”. The color of colonies ([18]; 24 h) was “Colorless”, the growth ([18]; 24 h) was “++” and the color of colonies ([18]; 48 h) was “Colorless”. For the same molecule, the growth ([18]; 48 h) was “++”, the color of colonies ([19]; 24 h) was “Colorless” and the growth ([19]; 24 h) was “++”. The color of colonies ([19]; 48 h) was “Colorless”, the growth ([19]; 48 h) was “++” and the growth ([20]; 24 h) was “NG”. The growth ([20]; 48 h) was “NG”.
For `C[n+]1c2ccccc2c(-c2ccc(NC(=O)CCN)cc2)c2ccccc21.[Cl-]` [β-Ala-4-AP-10-MA, β-alanyl-9-(4-aminophenyl)-10-methylacridinium chloride], the Color (Pseudomonas putida (028); 24 H) was “colorless”, the Color (Pseudomonas putida (028); 48 h) was “colorless” and the Color ([21]; 24 H) was “inhibited”. For the same molecule, the Color ([21]; 48 h) was “colorless”, the Color (Escherichia coli (032) [22]; 24 H) was “colorless” and the Color (Escherichia coli (032) [22]; 48 h) was “colorless”. The Color ([23]; 24 H) was “colorless”, the Color ([23]; 48 h) was “colorless” and the Color ([24]; 24 H) was “orange”. The Intensity ([24]; 24 H) was 2, the Color ([24]; 48 h) was “orange” and the Intensity ([24]; 48 h) was 3. For the same molecule, the Color ([25]; 24 H) was “colorless”, the Color ([25]; 48 h) was “colorless” and the Color ([26]; 24 H) was “orange”. The Intensity ([26]; 24 H) was 1.5, the Color ([26]; 48 h) was “orange” and the Intensity ([26]; 48 h) was 3. The Color ([27]; 24 H) was “inhibited”, the Color ([27]; 48 h) was “colorless” and the Color ([28]; 24 H) was “colorless”. The Color ([28]; 48 h) was “colorless”.
